# Data taken from patent US6914045B2, “Glycopeptide antibiotics” (Wyeth Holdings Corporation, priority 2001, dated 2005).
# Numbered stars: 1 amine (or outer) side, 2 acyl side, 3 side chain; on linkers, the order of the positions; unused ones are H or OH. Square brackets hold non-standard residues; d marks the D form. Peptide text beside a SMILES is read from it. ξ: configuration not given here. X1 = N=C1NCC(C(O)C(N[*:1])C(=O)[*:2])N1C1OC(CO)C(O)C(O)C1O; ξEnduracididine(βξ-OH,4'ξ) = N=C1NCC(C(O)C(N)C(=O)O)N1; Tyr(3,5-Br2) = N[CH](Cc1cc(Br)c(O)c(Br)c1)C(=O)O; ξPhe(βξ-Me) = CC(c1ccccc1)C(N)C(=O)O
# Tests used:
# Assay in all cases: in vitro antibacterial evaluation, MIC by broth dilution
# Assay type in all cases: cell-based
# Escherichia coli = conditions: 18 hours at 35° C.
# Streptococcus sp. = conditions: broth dilution, 18 hours at 35° C.
# Experimental: (§1) Methods for in vitro Antibacterial Evaluation (Table 1)
# (§2) The minimum inhibitory concentration (MIC), the lowest concentration of the antibiotic which inhibits growth of the test organism, is determined by the broth dilution method using Muller-Hinton II […] (Baltimore Biological Laboratories) following the recommendations of the National Committee for Clinical Laboratory Standards [Methods for dilution antimicrobial susceptibility tests for bacteria that grow aerobically, approved standard M7-A2, National Committee for Clinical Laboratory Standards, Villanova, Pa.].
# (§3) An inoculum level of 5×10^5 CFU/mL, and a range of antibiotic concentrations (64-0.06 μg/mL) is used. […] The test organisms include a spectrum of Gram-positive bacteria comprised of Staphylococcus sp., Streptococcus sp. and Enterococcus sp. These organisms include recent clinical isolates that are resistant to methicillin, penicillin and/or vancomycin.
# Staphylococcus sp. = test system: Staphylococcus sp.
# Experimental: as §1, §2, §3
# Enterococcus sp. = conditions: broth dilution, 18 hours at 35° C.
# Experimental: as §1, §2, §3
# [1] = broth dilution, 18 hours at 35° C.
# [2] = strain ATCC 29213; broth dilution, 18 hours at 35° C.
# [3] = strain GC 1131; broth dilution, 18 hours at 35° C.
# [4] = strain GC 4541; broth dilution, 18 hours at 35° C.
# [5] = strain GC 4542; broth dilution, 18 hours at 35° C.
# [6] = strain GC 4544; broth dilution, 18 hours at 35° C.
# [7] = strain GC 4545; broth dilution, 18 hours at 35° C.
structure (smiles),measurement,setting,value
CC(c1ccccc1)C1NC(=O)CNC(=O)C(CO)NC(=O)C(C(O)C2CN(c3nc4ccccc4o3)C(=N)N2C2OC(CO)C(O)C(O)C2O)NC(=O)C(C(O)C2CNC(=Nc3nc4ccccc4o3)N2)NC(=O)C(Cc2ccc(OC3OC(CO)C(OC4OC5COC6(OC5C(O)C4O)C4CC5CC(C4)CC6C5)C(O)C3O)cc2)NC1=O (stereo not shown) [Example 227],MIC Escherichia coli (ATCC 25922),Escherichia coli,>128 mg/L
same,MIC Escherichia coli (GC 4559),Escherichia coli,>128 mg/L
same,MIC Escherichia coli (GC 4560),Escherichia coli,8 mg/L
same,MIC Streptococcus agalactiae (GC 4564),Streptococcus sp.,4 mg/L
same,MIC Streptococcus pneumoniae (ATCC 6301),Streptococcus sp.,32 mg/L
same,MIC Streptococcus pneumoniae (GC 1894),Streptococcus sp.,32 mg/L
same,MIC Streptococcus pneumoniae (GC 4565),Streptococcus sp.,64 mg/L
same,MIC Streptococcus pyogenes (GC 4563),Streptococcus sp.,32 mg/L
same,MIC Streptococcus pneumoniae (ATCC 6301),"Streptococcus sp.; inoculum 5×10^5 CFU/mL, strain ATCC 6301",32 mg/L
same,MIC Streptococcus pneumoniae (GC 1894),"Streptococcus sp.; inoculum 5×10^5 CFU/mL, strain GC 1894",32 mg/L
same,MIC Streptococcus pyogenes (GC 4563),"Streptococcus sp.; inoculum 5×10^5 CFU/mL, strain GC 4563",32 mg/L
same,MIC Streptococcus agalactiae (GC 4564),"Streptococcus sp.; inoculum 5×10^5 CFU/mL, strain GC 4564",64 mg/L
same,MIC Streptococcus pneumoniae (GC 4565),"Streptococcus sp.; inoculum 5×10^5 CFU/mL, strain GC 4565",64 mg/L
same,MIC Coagulase Negative Staphylococcus (GC 4547),Staphylococcus sp.; [1],32 mg/L
same,MIC Coagulase Negative Staphylococcus (GC 4548),Staphylococcus sp.; [1],4 mg/L
same,MIC Coagulase Negative Staphylococcus (GC 4549),Staphylococcus sp.; [1],32 mg/L
same,MIC Coagulase Negative Staphylococcus (GC 4551),Staphylococcus sp.; [1],8 mg/L
same,MIC Staphylococcus aureus-SMITH (GC 4543),Staphylococcus sp.; [1],128 mg/L
same,MIC Staphylococcus haemolyticus (GC 4546),Staphylococcus sp.; [1],64 mg/L
same,MIC Staphylococcus aureus-SMITH (GC 4543),"Staphylococcus sp.; broth dilution, 18 hours at 35° C.; strain GC 4543",128 mg/L
same,MIC Staphylococcus haemolyticus (GC 4546),"Staphylococcus sp.; broth dilution, 18 hours at 35° C.; strain GC 4546",64 mg/L
same,MIC Coagulase Negative Staphylococcus (GC 4547),"Staphylococcus sp.; broth dilution, 18 hours at 35° C.; strain GC 4547",32 mg/L
same,MIC Coagulase Negative Staphylococcus (GC 4548),"Staphylococcus sp.; broth dilution, 18 hours at 35° C.; strain GC 4548",4 mg/L
same,MIC Coagulase Negative Staphylococcus (GC 4549),"Staphylococcus sp.; broth dilution, 18 hours at 35° C.; strain GC 4549",32 mg/L
same,MIC Coagulase Negative Staphylococcus (GC 4551),"Staphylococcus sp.; broth dilution, 18 hours at 35° C.; strain GC 4551",8 mg/L
same,MIC Staphylococcus aureus (ATCC 29213),Staphylococcus sp.; [2],128 mg/L
same,MIC Staphylococcus aureus (GC 1131),Staphylococcus sp.; [3],128 mg/L
same,MIC Staphylococcus aureus (GC 3051),"Staphylococcus sp.; strain GC 3051; broth dilution, 18 hours at 35° C.",128 mg/L
same,MIC Staphylococcus aureus (GC 3053),"Staphylococcus sp.; strain GC 3053; broth dilution, 18 hours at 35° C.",>128 mg/L
same,MIC Staphylococcus aureus (GC 4541),Staphylococcus sp.; [4],128 mg/L
same,MIC Staphylococcus aureus (GC 4542),Staphylococcus sp.; [5],128 mg/L
same,MIC Staphylococcus aureus (GC 4544),Staphylococcus sp.; [6],128 mg/L
same,MIC Staphylococcus aureus (GC 4545),Staphylococcus sp.; [7],128 mg/L
same,MIC Enterococcus avium (GC 4558),Enterococcus sp.,8 mg/L
same,MIC Enterococcus faecalis (ATCC 29212),Enterococcus sp.,64 mg/L
same,MIC Enterococcus faecalis (GC 2242),Enterococcus sp.,64 mg/L
same,MIC Enterococcus faecalis (GC 2691),Enterococcus sp.,64 mg/L
same,MIC Enterococcus faecalis (GC 3059),Enterococcus sp.,128 mg/L
same,MIC Enterococcus faecalis (GC 4552),Enterococcus sp.,64 mg/L
same,MIC Enterococcus faecalis (GC 4553),Enterococcus sp.,8 mg/L
same,MIC Enterococcus faecalis (GC 4554),Enterococcus sp.,128 mg/L
same,MIC Enterococcus faecalis (GC 6189),Enterococcus sp.,64 mg/L
same,MIC Enterococcus faecium (GC 2243),Enterococcus sp.,32 mg/L
same,MIC Enterococcus faecium (GC 4556),Enterococcus sp.,64 mg/L
same,MIC Enterococcus faecium (GC 4557),Enterococcus sp.,8 mg/L
same,MIC Enterococcus faecalis (ATCC 29212),"Enterococcus sp.; inoculum 5×10^5 CFU/mL, strain ATCC 29212",64 mg/L
same,MIC Enterococcus faecalis (GC 2242),"Enterococcus sp.; inoculum 5×10^5 CFU/mL, strain GC 2242",64 mg/L
same,MIC Enterococcus faecium (GC 2243),"Enterococcus sp.; inoculum 5×10^5 CFU/mL, strain GC 2243",32 mg/L
same,MIC Enterococcus faecalis (GC 2691),"Enterococcus sp.; inoculum 5×10^5 CFU/mL, strain GC 2691",64 mg/L
same,MIC Enterococcus faecalis (GC 3059),"Enterococcus sp.; inoculum 5×10^5 CFU/mL, strain GC 3059",128 mg/L
same,MIC Enterococcus faecalis (GC 4552),"Enterococcus sp.; inoculum 5×10^5 CFU/mL, strain GC 4552",64 mg/L
same,MIC Enterococcus faecalis (GC 4553),"Enterococcus sp.; inoculum 5×10^5 CFU/mL, strain GC 4553",8 mg/L
same,MIC Enterococcus faecalis (GC 4554),"Enterococcus sp.; inoculum 5×10^5 CFU/mL, strain GC 4554",128 mg/L
same,MIC Enterococcus faecium (GC 4556),"Enterococcus sp.; inoculum 5×10^5 CFU/mL, strain GC 4556",64 mg/L
same,MIC Enterococcus faecium (GC 4557),"Enterococcus sp.; inoculum 5×10^5 CFU/mL, strain GC 4557",8 mg/L
same,MIC Enterococcus avium (GC 4558),"Enterococcus sp.; inoculum 5×10^5 CFU/mL, strain GC 4558",8 mg/L
same,MIC Enterococcus faecalis (GC 6189),"Enterococcus sp.; inoculum 5×10^5 CFU/mL, strain GC 6189",64 mg/L
"CC(c1ccccc1)C1NC(=O)CNC(=O)C(CO)NC(=O)C(C(O)C2CNC(=N)N2C2OC(CO)C(O)C(O)C2O)NC(=O)C(C(O)C2CNC(=N)N2)NC(=O)C(Cc2cc(Br)c(O)c(Br)c2)NC1=O (stereo not drawn) [Example 3, Cyclo[glycyl-β-methylphenylalanyl-3,5-dibromotyrosyl-3-(2-iminoimidazolidin-4-yl)seryl-3-(3-hexopyranosyl-2-iminoimidazolidin-4-yl)serylseryl]] (cyclo(G[ξPhe(βξ-Me)][Tyr(3,5-Br2)][ξEnduracididine(βξ-OH,4'ξ)][X1]S); configuration not given here)",MIC Escherichia coli (ATCC 25922),"Escherichia coli; strain ATCC 25922, broth dilution",>128 mg/L
same,MIC Escherichia coli (GC 4559),"Escherichia coli; strain GC 4559, broth dilution",>128 mg/L
same,MIC Escherichia coli (GC 4560),"Escherichia coli; strain GC 4560, broth dilution",64 mg/L
same,MIC Streptococcus agalactiae (GC 4564),Streptococcus sp.; strain GC 4564,>128 mg/L
same,MIC Streptococcus pneumoniae (GC 4565),Streptococcus sp.; strain GC 4565,>128 mg/L
same,MIC Streptococcus pyogenes (ID-3187),Streptococcus sp.; strain ID-3187,>128 mg/L
same,MIC Staphylococcus aureus (ATCC 29213),Staphylococcus sp.; [2],>128 mg/L
same,MIC Staphylococcus aureus (GC 1131),Staphylococcus sp.; [3],>128 mg/L
same,MIC Staphylococcus aureus (GC 4541),Staphylococcus sp.; [4],>128 mg/L
same,MIC Staphylococcus aureus (GC 4542),Staphylococcus sp.; [5],>128 mg/L
same,MIC Staphylococcus aureus-SMITH (GC 4543),"Staphylococcus sp.; strain GC 4543; broth dilution, 18 hours at 35° C.",>128 mg/L
same,MIC Staphylococcus aureus (GC 4544),Staphylococcus sp.; [6],>128 mg/L
same,MIC Staphylococcus aureus (GC 4545),Staphylococcus sp.; [7],>128 mg/L
same,MIC Staphylococcus haemolyticus (GC 4546),"Staphylococcus sp.; strain GC 4546; broth dilution, 18 hours at 35° C.",>128 mg/L
same,MIC Coagulase Negative Staphylococcus (GC 4547),"Staphylococcus sp.; strain GC 4547; broth dilution, 18 hours at 35° C.",>128 mg/L
same,MIC Coagulase Negative Staphylococcus (GC 4548),"Staphylococcus sp.; strain GC 4548; broth dilution, 18 hours at 35° C.",>128 mg/L
same,MIC Coagulase Negative Staphylococcus (GC 4549),"Staphylococcus sp.; strain GC 4549; broth dilution, 18 hours at 35° C.",128 mg/L
same,MIC Coagulase Negative Staphylococcus (GC 4551),"Staphylococcus sp.; strain GC 4551; broth dilution, 18 hours at 35° C.",>128 mg/L
same,MIC Coagulase Negative Staphylococcus (ID-3941),"Staphylococcus sp.; strain ID-3941; broth dilution, 18 hours at 35° C.",128 mg/L
same,MIC Enterococcus faecalis (ATCC 29212),Enterococcus sp.; strain ATCC 29212,>128 mg/L
same,MIC Enterococcus faecalis (GC 2242),Enterococcus sp.; strain GC 2242,>128 mg/L
same,MIC Enterococcus faecium (GC 2243),Enterococcus sp.; strain GC 2243,>128 mg/L
same,MIC Enterococcus faecalis (GC 4552),Enterococcus sp.; strain GC 4552,>128 mg/L
same,MIC Enterococcus faecalis (GC 4553),Enterococcus sp.; strain GC 4553,>128 mg/L
same,MIC Enterococcus faecalis (GC 4554),Enterococcus sp.; strain GC 4554,>128 mg/L
same,MIC Enterococcus faecium (GC 4556),Enterococcus sp.; strain GC 4556,>128 mg/L
same,MIC Enterococcus faecium (GC 4557),Enterococcus sp.; strain GC 4557,>128 mg/L
same,MIC Enterococcus avium (GC 4558),Enterococcus sp.; strain GC 4558,>128 mg/L
